Experimental findings from ChEMBL document CHEMBL5260813, “An overview on the recent developments of 1,2,4-triazine derivatives as anticancer compounds” (Eur J Med Chem, 2017) are described below.

Structures are written as SMILES.

Assay [1] relates to A549. Kind of assay: Antiproliferative activity against human A549 cells assessed as inhibition of cell growth under hypoxia condition. It counts as functional, cell-based.
For assay [2], the system named is KB. Kind of assay: Antiproliferative activity against human KB cells assessed as inhibition of cell growth under hypoxia condition. It counts as functional, cell-based.
Assay [3] deals with MDA-MB-468. The assay is described as follows: Antiproliferative activity against human MDA-MB-468 cells assessed as reduction in cell viability. It counts as functional.
Assay [4] has as its system K562. Kind of assay: Induction of apoptosis in human K562 cells assessed as increase in apoptotic cells under hypoxia condition relative to control. It counts as functional.
Assay [5] relates to K562. Kind of assay: Induction of apoptosis in human K562 cells assessed as increase in apoptotic cells under normoxia condition relative to control. It counts as functional.
Assay [6] deals with SMMC-7721. The assay is described as follows: Antiproliferative activity against human SMMC-7721 cells assessed as inhibition of cell growth incubated for 72 hrs by MTT assay. It counts as functional, cell-based. The note with it: SMMC-7721, 72 h. (Formazan colour is commonly taken as a measure of viable cells.)
The subject of assay [7] is A549. Kind of assay: Antiproliferative activity against human A549 cells assessed as inhibition of cell growth incubated for 72 hrs by MTT assay. It counts as functional, cell-based. Conditions: A549, 72 h.
Assay [8] relates to MCF7. The assay is described as follows: Antiproliferative activity against human MCF7 cells assessed as inhibition of cell growth. It counts as functional, cell-based.
The subject of assay [9] is SF-268. The assay is described as follows: Antiproliferative activity against human SF-268 cells assessed as inhibition of cell growth. It counts as functional, cell-based.
For assay [10], the system named is NCI-H460. Kind of assay: Antiproliferative activity against human NCI-H460 cells assessed as inhibition of cell growth. It counts as functional, cell-based.
The target in assay [11] is Fibroblast growth factor receptor (Homo sapiens, UniProt P22607+P11362+P22455+P21802). Kind of assay: Inhibition of FGFR (unknown origin). It counts as protein assay.
In assay [12] the test system is OVCAR-4. The assay is described as follows: Antiproliferative activity against human OVCAR-4 cells assessed as cell growth inhibition. It counts as functional, cell-based.
Assay [13] concerns Panel NCI-60 (60 carcinoma cell lines). The assay is described as follows: Antiproliferative activity against human Panel NCI-60 (60 carcinoma cell lines) cells assessed as inhibition of cell growth. It counts as functional, cell-based.
For assay [14], the system named is NCI-H460. The assay is described as follows: Antiproliferative activity against human NCI-H460 cells assessed as inhibition of cell growth measured after 48 hrs by MTT assay. It counts as functional, cell-based. The note with it: NCI-H460, 48 h.
For assay [15], the system named is CAKI-1. The assay is described as follows: Antiproliferative activity against human CAKI-1 cells assessed as inhibition of cell growth. It counts as functional, cell-based.
Assay [16] concerns PC-3. The assay is described as follows: Antiproliferative activity against human PC-3 cells assessed as inhibition of cell growth measured after 48 hrs by MTT assay. It counts as functional, cell-based. The note with it: PC-3, 48 h.
Assay [17] deals with MCF7. The assay is described as follows: Antiproliferative activity against human MCF7 cells assessed as inhibition of cell growth measured after 48 hrs by MTT assay. The note with it: MCF7, 48 h. It counts as functional, cell-based.
Assay [18] relates to TMD8. Kind of assay: Antiproliferative activity against human TMD8 cells assessed as inhibition of cell growth incubated for 3 days by WST-1 assay. It counts as functional, cell-based. Conditions: TMD8, 72 h.
Assay [19] deals with OCI-Ly10. Kind of assay: Antiproliferative activity against human OCI-Ly10 cells assessed as inhibition of cell growth incubated for 3 days by WST-1 assay. It counts as functional, cell-based. Conditions: OCI-Ly10, 72 h.
The nature of assay [20]: Antiproliferative activity against human HBL1 cells assessed as inhibition of cell growth incubated for 3 days by WST-1 assay. It counts as functional, cell-based. Conditions: HBL1, 72 h.
In assay [21] the target is T1, Tyrosine-protein kinase SYK (Homo sapiens, UniProt P43405). Kind of assay: Inhibition of human SYK using 5-Fluo-Ahx-GAPDYENLQELNKK-Amid as substrate in presence of ATP by microfluidic mobility shift assay.
In assay [22] the target is T1, Tyrosine-protein kinase SYK. The assay is described as follows: Inhibition of SYK in human Ramos cells assessed as reduction in anti IgM-induced phosphorylation of BLNK by flow cytometry assay. It counts as cell-based. Background: Flow cytometry measures light scatter and fluorescence of single cells or particles in a stream.

One may read the IC50 as the concentration at which inhibition is half-maximal. For the compound `COCNc1n[n+]([O-])c2ccccc2[n+]1[O-]`, the IC50 in assay [1] and in assay [2] was 2700 nM in each case.

As a reminder, the GI50 is the concentration that inhibits growth by half. For the compound `CC(C)c1ccc(-c2nn3nnc4ccccc4c3nc2=O)cc1`, the GI50 in assay [3] was found to be 410 nM.

In the case of `CCOCNc1n[n+]([O-])c2ccccc2[n+]1[O-]`, the Activity in assay [4] stood at 32.11%; in assay [5] it was 9.5%. In addition, the IC50 in assay [2] was found to be 4090 nM; in assay [6], 3120 nM; in assay [7], 3120 nM.

With `Cc1ccc(C2=NN=C(/C(C#N)=N/Nc3sc4c(c3C#N)CCCC4)N(Nc3ccccc3)C2)cc1`, the IC50 worked out at 12400 nM in assay [8], 8300 nM in assay [9] and 6800 nM in assay [10].

In [11], `CCn1c(=O)c(-c2cc(OC)cc(OC)c2)cc2nnc(Nc3ccncc3)nc21` came in with an IC50 of 350 nM.

On to `Cc1c(C#N)c2nnc(C(N)=O)c(N)n2c1-c1ccccc1`, for which the IC50 came out at 2770 nM in [12] and 3340 nM in assay [13].

For `Cc1nn(C)c2nn3nnnc3nc12`, the IC50 in assay [14] turned out to be 400 nM; in assay [15], 1120 nM; in [16] it was 400 nM; in assay [12], 1120 nM; in [17] it was 400 nM.

On to `NC(=O)c1nnc(N[C@@H]2CCCC[C@@H]2N)nc1Nc1cccc2cc[nH]c12`, for which the IC50 in assay [18] was 281 nM; in assay [19], 25 nM; in assay [20], 105 nM; in assay [21], 0.8 nM; in assay [22], 14 nM.
